Reference: paper PMC8406304, “Inhibiting Type VI Secretion System Activity with a Biomimetic Peptide Designed To Target the Baseplate Wedge Complex” (mBio, 2021)
“Also recorded” adds a separate entry of the source.

Key:
TssK = experiment: Isothermal titration calorimetry (ITC), TssK-WT; assay type: binding, enteroaggregative Escherichia coli (EAEC); details: 25°C
Experimental: (§1) To evaluate the direct interaction between the BCP and its target TssK, we performed isothermal titration calorimetry (ITC) experiments. The wild-type BCP and TssK interact with an observable affinity (KD) of 60 μM (Fig. 5A).
(§2) The working buffer for both proteins and peptide was 50 mM HEPES (pH 7.0), 150 mM NaCl to avoid buffer mismatch. The experiments were performed at 25°C using the MicroCal PEAQ-ITC instrument (Malvern Panalyticals, Malvern, UK) in duplicate with 19 injections, first with an initial injection of 0.4 μl followed by 18 injections of 2 μl. Two assays were performed. In the first, 25 μM WT TssK ligand was in the cell and 1 mM WT BCP analyte was in the syringe. In the second, 25 μM TssK L14A ligand was in the cell and 1 mM WT BCP analyte was in the syringe. The reaction was performed with a constant stirring speed of 750 rpm; each injection lasted for 4 s with a 150-s space between injections. A constant heat control (offset) was removed from the raw data to account for heat dilution before integration. The data were fitted using the One Set of Sites model in the PEAQ-ITC analysis software.

TssK-L14A = experiment: Isothermal titration calorimetry (ITC), TssK-L14A variant; assay type: binding, enteroaggregative Escherichia coli (EAEC); details: 25 μM TssK-L14A, 1 mM wild-type BCP, 50 mM HEPES pH 7.0, 150 mM NaCl, 25°C
Experimental: as §1, §2

[1] = system: TssK-sfGFP foci in EAEC (assembled baseplates); assay type: cell-based, enteroaggregative Escherichia coli (EAEC)
Experimental: Fluorescence microscopy experiments were performed as previously described ([97], [98]). An overnight culture in LB of EAEC strain with a chromosomal GFP fusion to TssK was diluted 1/200 in SIM medium and grown at 37°C until the culture reached an A600 of ∼0.8. Ten optical density units (ODU) was pelleted for 10 min at 3,500 × g, resuspended at 1 ODU/ml in the same SIM medium supplemented with 0.8 M NaCl, and equilibrated for 1 h at room temperature. Cells were pelleted for 10 min at 3,500 × g, resuspended in 100 μl of classical SIM without NaCl supplemented with 1 mM peptide of buffer, and incubated for 20 min at room temperature. Cells were diluted in classical SIM medium at 0.4 ODU/ml and incubated at 37°C 160 rpm until the absorbance again reached ∼0.8. Ten ODU was harvested and resuspended in fresh SIM medium. Cell mixtures were spotted on a thin pad of SIM medium supplemented with 2% agarose, covered with a coverslip, and incubated for 20 to 30 min at room temperature before microscopy acquisition. Fluorescence microscopy was performed with a Nikon Eclipse Ti2 microscope equipped with a 100× objective (numerical aperture, 1.45), an Orca-Fusion digital camera (Hamamatsu), and a perfect focus system (PFS) to automatically maintain focus so that the point of interest within a specimen is kept in sharp focus at all times despite mechanical or thermal perturbations. All fluorescence images were acquired in Hilo mode using an Ilas2 TIRF module (Gataca Systems). Exposure times were typically 100 ms for phase contrast and 100 ms using the GFP channel. For image treatment, noise and background were reduced by filtering large structures down to 40 pixels in the FFT Bandpass Filter function of ImageJ ([102]). The GFP foci were automatically detected using the MicrobeJ plugin ([103]).

[2] = system: EAEC T6SS+ killing of E. coli K-12 W3110 prey; experiment: Antibacterial growth competition assay (EAEC attacker vs E. coli prey); assay type: cell-based, enteroaggregative Escherichia coli (EAEC); details: 1 mM BCP added directly to competition mixture, 4 h at 37°C, CFU enumeration
Experimental: Based on the BCP ability to bind to TssK and to limit the in vitro binding of the TssFGE wedge components onto TssK, we evaluated its T6SS interference potential on bacteria. We set up a competition experiment between EAEC (predator, T6SS^+) and E. coli (prey, T6SS^−) strains (see Materials and Methods) in the presence or absence of the BCP. Incubation of cells with 1 mM BCP is accompanied by a drastic decrease of prey cells number, similar to what is observed in the absence of BCP. […] To test this hypothesis, we developed a protocol favoring BCP entry into bacterial cells without any electroporation or chemical steps likely to impair T6SS activity (see Materials and Methods).
The antibacterial growth competition assay was performed as previously described ([100]). Wild-type E. coli K-12 strain W3110 bearing the pUA66-rrnB plasmid (conferring kanamycin resistance and constitutive GFP fluorescence, with the gfp gene under the control of the ribosomal rrnB promoter) ([101]) was used as the recipient. Attacker and recipient cells were grown for 16 h in LB medium, diluted in SIM medium to allow maximal expression of the sci-1 gene cluster. Once the culture reached an A600 of ∼0.8, cells were harvested and normalized, and drops of the mixture were spotted in triplicate onto a prewarmed dry SIM agar plate with or without the addition of 0.5 mg ml^−1 arabinose. […]

EAEC = experiment: Bacterial growth / toxicity of the peptide; assay type: cell-based, enteroaggregative Escherichia coli (EAEC); details: up to 1 mM, EAEC TssK-GFP in SIM medium, OD at 600 nm; biological triplicates

## SRPVMG-SRPVMG-SRPVMG (head to tail) [BCP, biomimetic cyclic peptide SRPVMG-SRPVMG-SRPVMG mimicking TssG foot 1]
TssK; ITC signature plot, TssK-WT with BCP, pH 7.0
  ITC binding signature: enthalpy / ΔG: driven by a favorable enthalpy; also recorded: enthalpy-driven interaction with a favorable ΔG
TssK; ITC, 25 μM TssK-WT in cell, 1 mM BCP in syringe, 50 mM HEPES pH 7.0, 150 mM NaCl, duplicate, One Set of Sites fit, read-out: observable affinity (KD)
  Kd: 60 µM
TssK-L14A
  ITC binding signal with TssK-L14A: None of these conditions led to a detectable ITC binding signal; also recorded: lack of binding
[1]; 1 mM
  time of maximum effect after peptide entry: within the first hour after peptide entry
[1]; 1 mM peptide, hypo-osmotic shock (osmoporation), vs peptide-free treated cells, ∼500 cells per condition, triplicate
  increase in proportion of bacteria with no observable TssK-sfGFP foci: ~30%
[1]; 1 mM peptide, hypo-osmotic shock, in words, ∼500 cells per condition, triplicate
  number of fluorescent TssK-sfGFP foci: decreased TssK-sfGFP foci compared to both control peptides
[1]; BCP, cells without osmotic shock, compared to cells without peptide
  TssK-GFP foci without osmotic shock: comparable to those without peptide
[1]; EAEC TssK-GFP, SIM medium, NaCl-induced hypo-osmotic shock
  requirement of hypo-osmotic shock for entry into cells: mandatory for BCP entry into cells
[2]
  effect on killing ability of EAEC (prey survival): does not affect the killing ability of EAEC
EAEC
  toxicity for bacteria: not toxic for bacteria up to 1 mM; also recorded: no impact on the growth of EAEC
